Starred links: 1 amine or outer side, 2 acyl side, 3 side chain; linkers in the order of their positions; H or OH if unused. Positions of bridges follow the written chain, without caps; N, C: chain ends. Non-standard residues stand in square brackets, D forms with d. Residues, ends and D or L forms follow the SMILES beside them. No end group written: not given here. ξ: configuration not given here. *: point of attachment. X2 = C[C@@](CCCCC=[*:3])(N[*:1])C(=O)[*:2]; Leu(4,5-dehydro) = C=C(C)C[C@H](N)C(=O)O; Oic = O=C(O)[C@@H]1C[C@@H]2CCCC[C@@H]2N1; d(tBuAla) = CC(C)(C)C[C@@H](N)C(=O)O; dVal(3-OH) = CC(C)(O)[C@@H](N)C(=O)O; Val(3-OH) = CC(C)(O)[C@H](N)C(=O)O; cisHyp = O=C(O)[C@@H]1C[C@H](O)CN1; tBuAla = CC(C)(C)C[C@H](N)C(=O)O; Myristoyl = CCCCCCCCCCCCCC(=O)*; R5 = C=CCCC[C@@](C)(N)C(=O)O; X1 = O=C(CC(O)CN[*:1])[*:2]; 3Amb = NCc1cccc(C(=O)O)c1; 4Amb = NCc1ccc(C(=O)O)cc1; ξP = O=C(O)C1CCCN1

Data set [1] concerns the target EB3 interactions with IP3R3-GFP (Homo sapiens, UniProt Q9UPY8). The experiment in a line: Competitive binding: inhibition of EB3 interaction with IP3R3-GFP in vitro. Particulars: for Competitive Binding at 250nM (% Inhibition): 0.25 µM; for inhibition at 0.25 µM: 250 nM. It counts as biochemical. An excerpt:
We tested the efficacy of twenty-three compounds in inhibiting EB3 interactions with IP3R3-GFP via an in vitro approach developed by us[12],[13]. […] Guided by NMR studies, we predicted the binding pose of 109 to EB3 via AutoDock Vina[13],[24],[25].

Data set [2] deals with human primary microvascular lung endothelial cells (HLMVECs). The experiment in a line: Peptide uptake in endothelial cells. It counts as cell-based. Here is the method:
We next analyzed the cell-penetrating properties of the selected compounds, hereafter referred to as vascular therapeutics (VT). The rate of uptake of 5’6-FAM (fluorescein)-labeled compounds by human primary microvascular lung endothelial cells (HLMVECs) was determined via confocal fluorescence live-cell imaging. FAM-labeled Myr-EBIN[13] and fluorescein alone were used as positive and negative controls, respectively. The t½ uptake and maximal uptake were determined from changes in the integrated fluorescence intensity over a 30 min period (Fig. 2a and Supplementary Fig. 1a). […] Like Myr-EBIN, compounds VT-107, -108 and -109 presented the highest uptake rates of 92.5 ± 5.0%, 82.5 ± 2.8% and 94.7 ± 4.9%, respectively, whereas the linear compound VT-101 was taken up less efficiently, with an average uptake of 58.4 ± 2.7% (Fig. 2a). […] The t½ uptake, however, varied between the tested compounds (Fig. 2b). The stapled compounds presented the shortest t½ uptake, whereas the linear compounds presented the longest t½ (Fig. 2b).
Peptide uptake in endothelial cells. The rate of peptide uptake by primary human microvascular endothelial cells was measured using 5’6FAM (fluorescein)-labeled peptides and confocal fluorescence live-cell imaging, with fluorescein alone used as a negative control. Changes in intracellular fluorescence for each peptide were monitored over time, and saponin, a detergent, was added at the end of the experiment to induce full uptake of the tested peptides by endothelial cells. The fluorescence intensity inside the cells was tracked over time, and the half-time uptake (t1/2) and maximum uptake were calculated.

A short description of data set [3]: Lipophilicity of peptides, logP(oct/wat). In kind it is physicochemical. Here is the method: (§1) The solubilities of the synthesized compounds were determined experimentally (Supplementary Table 2). Most compounds were highly soluble at a 1 mM concentration; however, some compounds tended to form aggregates. These compounds were excluded from further studies. In addition, we experimentally determined the lipophilicity of each compound, logP(oct/wat)=log(soluteoct/solutewat ), which is the partition coefficient of a compound between aqueous (water) and lipophilic (octanol) phases (Supplementary Table 2).
Lipophilicity of peptides. Two separate solutions were obtained: an aqueous phosphate buffer with saturated n-octanol, and an n-octanol solution with saturated phosphate buffer. Peptides were then dissolved and diluted in the phosphate buffer. Different partitions were then made with different n-octanol to water ratio before shaking for an hour at room temperature. The aqueous phase and n-octanol were allowed to equilibrate, and each phase was extracted and analyzed for peptide concentrations. The ratio of peptide concentration in n-octanol to that in water is expressed as log(P).

A short description of data set [4]: Aggregation / solubility at 1 mM. In kind it is physicochemical. Conditions: summary calls it solubility at 1mM. Here is the method: as §1
Data set [5] can be described thus: Stability of selected EB3 inhibitors in human blood plasma. In kind it is in vitro ADME. Conditions: human, plasma. Here is the method:
Supplementary Table 3. Stability of selected EB3 inhibitors in human blood plasma. The indicated inhibitors were incubated with human plasma at 37 °C and samples were taken at the indicated time points. Plasma proteins were precipitated with ice-cold perchloric acid (60%); the concentration of compounds was measured in supernatant using a liquid chromatography-tandem mass spectrometry (LC-MS/MS). See also Figures 1 and 2.

EB3 interactions with IP3R3-GFP, sequence (Q9UPY8 whole entry): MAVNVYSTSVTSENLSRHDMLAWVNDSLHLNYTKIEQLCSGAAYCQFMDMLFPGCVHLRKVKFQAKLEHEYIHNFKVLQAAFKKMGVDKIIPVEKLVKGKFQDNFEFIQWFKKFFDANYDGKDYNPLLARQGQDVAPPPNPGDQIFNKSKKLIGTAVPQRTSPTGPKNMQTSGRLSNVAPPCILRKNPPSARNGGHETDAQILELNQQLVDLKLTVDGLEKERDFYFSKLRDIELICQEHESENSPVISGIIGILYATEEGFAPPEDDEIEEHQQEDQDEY

Consider “FTEIPTI [compound 000, (S)-4-((2S,3R)-2-((S)-2-amino-3-phenylpropanamido)-3-hydroxybutanamido)-5-(((2S,3S)-1-((S)-2-(((2S,3R)-1-(((1S,2S)-1-carboxy-2-methylbutyl)amino)-3-hydroxy-1-oxobutan-2-yl)carbamoyl)pyrrolidin-1-yl)-3-methyl-1-oxopentan-2-yl)amino)-5-oxopentanoic acid, reference compound]”, for which the “Competitive Binding at 250nM (% Inhibition)” value was “no inhibition” in data set [1] and “did not” in data set [1] (listed as EBIN). The “half-time uptake t1/2” value in data set [2] is 2.50 ± 0.06 min. Besides, the “Log P (Octanol/Water)” value in data set [3] was determined as 0.75.

Turning to `CC[C@H](C)[C@H](NC(=O)CC(O)CNC(=O)[C@@H]1[C@@H]2CCCC[C@@H]2CN1C(=O)[C@H](CC(C)(C)C)NC(=O)c1cccc(CNC(=O)[C@H](NC(=O)[C@@H](N)Cc2ccccc2)C(C)(C)O)c1)C(=O)O` (stereo partly drawn) [compound 041, (4-((1S,3aS,7aR)-2-((S)-2-(3-(((R)-2-((S)-2-amino-3-phenylpropanamido)-3-hydroxy-3-methylbutanamido)methyl)benzamido)-4,4-dimethylpentanoyl)octahydro-1H-isoindole-1-carboxamido)-3-hydroxybutanoyl)-L-isoleucine], the “Aggregation at 1mM” value in data set [4] worked out at 0.18. For the same compound, the inhibition (as a rule, the drop in the measured response relative to a control, in per cent) at 0.25 µM in data set [1] came to 30%. The log distribution coefficient (logD) (commonly lipophilicity at a set pH, counting ionised and neutral species) in data set [3] was 0.71.

On to `CC[C@H](C)[C@H](NC(=O)[C@@H](NC(=O)[C@@H]1C[C@H](O)CN1C(=O)[C@H](CC(C)(C)C)NC(=O)[C@H](CCC(=O)O)NC(=O)[C@H](NC(=O)[C@@H](N)Cc1ccccc1)C(C)(C)O)[C@@H](C)O)C(=O)O` [compound 038, (S)-4-((R)-2-((S)-2-amino-3-phenylpropanamido)-3-hydroxy-3-methylbutanamido)-5-(((S)-1-((2S,4S)-2-(((2S,3R)-1-(((1S,2S)-1-carboxy-2-methylbutyl)amino)-3-hydroxy-1-oxobutan-2-yl)carbamoyl)-4-hydroxypyrrolidin-1-yl)-4,4-dimethyl-1-oxopentan-2-yl)amino)-5-oxopentanoic acid] (H-F[dVal(3-OH)]E[tBuAla][cisHyp]TI-OH), for which, in data set [4], the “Aggregation at 1mM” value is recorded as 0.35. Moreover, in data set [1], the inhibition at 0.25 µM was 36%. In data set [3], this compound came in with a pH-dependent lipophilicity (logD) of -0.19.

Turning to `C=C(C)C[C@H](NC(=O)CC(O)CNC(=O)[C@@H]1C[C@@H]2CCCC[C@@H]2N1C(=O)[C@H](CC(=C)C)NC(=O)c1ccc(CNC(=O)[C@H](NC(=O)[C@H](N)Cc2ccccc2)C(C)(C)O)cc1)C(=O)O` (stereo partly drawn) [compound 105, (2S)-2-(4-((2S,3aS,7aS)-1-((S)-2-(4-(((R)-2-((R)-2-amino-3-phenylpropanamido)-3-hydroxy-3-methylbutanamido)methyl)benzamido)-4-methylpent-4-enoyl)octahydro-1H-indole-2-carboxamido)-3-hydroxybutanamido)-4-methylpent-4-enoic acid.] (H-[dF][dVal(3-OH)][4Amb][Leu(4,5-dehydro)][Oic][X1][Leu(4,5-dehydro)]-OH), the “Aggregation at 1mM” value in data set [4] is “weak signal”. In addition, in data set [1], the inhibition at 0.25 µM was 70%. In data set [3], this compound yielded a logD of -0.37.

Consider `CC(C)(C)C[C@H](NC(=O)CC(O)CNC(=O)[C@@H]1C[C@@H]2CCCC[C@@H]2N1C(=O)[C@H](CC(C)(C)C)NC(=O)c1ccc(CNC(=O)[C@H](N)C(C)(C)O)cc1)C(=O)O` (stereo partly drawn) [compound 103, (2S)-2-(4-((2S,3aS,7aS)-1-((S)-2-(4-(((R)-2-amino-3-hydroxy-3-methylbutanamido)methyl)benzamido)-4,4-dimethylpentanoyl)octahydro-1H-indole-2-carboxamido)-3-hydroxybutanamido)-4,4-dimethylpentanoic acid] (H-[dVal(3-OH)][4Amb][tBuAla][Oic][X1][tBuAla]-OH), for which the “Aggregation at 1mM” value in data set [4] is given as “weak signal”. In addition, testing at 0.25 µM in data set [1] gave an inhibition of 12%. Besides, the logD in data set [3] worked out at 0.44.

On to `CCCCCCCCCCCCCC(=O)N[C@@H](Cc1ccccc1)C(=O)N[C@H](C(=O)N[C@@H](CCC(=O)O)C(=O)N[C@H](C(=O)N1CCC[C@H]1C(=O)N[C@H](C(=O)N[C@H](C(=O)O)[C@@H](C)CC)[C@@H](C)O)[C@@H](C)CC)[C@@H](C)O` [Myr-EBIN, reference compound] (Myristoyl-FTEIPTI-OH), for which, in data set [5], the fraction remaining at 1.5 h amounted to 105% and the amount remaining at 20 h turned out to be 53%.

Consider `C=C(C)C[C@H](NC(=O)c1ccc(CNC(=O)CC(O)CN)cc1)C(=O)N1[C@H](C(=O)NCC(O)CC(=O)N[C@@H](CC(C)(C)C)C(=O)O)C[C@@H]2CCCC[C@@H]21` (stereo partly drawn) [compound 104, (2S)-2-(4-((2S,3aS,7aS)-1-((2S)-2-(4-((4-amino-3-hydroxybutanamido)methyl)benzamido)-4-methylpent-4-enoyl)octahydro-1H-indole-2-carboxamido)-3-hydroxybutanamido)-4,4-dimethylpentanoic acid.], for which the “Aggregation at 1mM” value in data set [4] is listed as “weak signal”. In data set [1], this compound gave an inhibition at 0.25 µM of 40%. In addition, the “half-time uptake t1/2” value in data set [2] is on record as 8.56 ± 0.48 min. This compound also displayed a log distribution coefficient (logD) in data set [3] of -0.3.

For `CC[C@@H](C)[C@H]1NC(=O)[C@H]([C@@H](C)O)NC(=O)C2CCCN2C(=O)[C@@H](CC(C)(C)C)NC(=O)[C@](C)(NC(=O)[C@@H](CCC(=O)O)NC(=O)[C@H](NC(=O)[C@H](N)Cc2ccccc2)[C@H](C)O)CCC/C=C\CCCC[C@@](C)(C(=O)N[C@@H](CCCNC(=N)N)C(=O)O)NC1=O` (stereo partly drawn) [compound 028, (4R)-4-((2R,3S)-2-((R)-2-amino-3-phenylpropanamido)-3-hydroxybutanamido)-5-(((3S,6R,9S,19R,22R,Z)-6-((R)-sec-butyl)-9-(((S)-1-carboxy-4-guanidinobutyl)carbamoyl)-3-((R)-1-hydroxyethyl)-9,19-dimethyl-22-neopentyl-1,4,7,20,23-pentaoxo-2,3,4,5,6,7,8,9,10,11,12,13,16,17,18,19,20,21,22,23,25,26,27,27a-tetracosahydro-1H-pyrrolo[1,2-d][1,4,7,10,13]pentaazacyclopentacosin-19-yl)amino)-5-oxopentanoic acid] (H-[dF][dT][dE][R5][d(tBuAla)][ξP]T[dI][X2]R-OH; staple (Z) 4-9), in data set [4], the “Aggregation at 1mM” value was determined as 1.39. The compound further had an inhibition at 0.25 µM in data set [1] of 45%. Further, the logD in data set [3] was -1.

`CC[C@H](C)[C@H](NC(=O)[C@@H](NC(=O)[C@@H]1CCCN1C(=O)[C@H](CC(C)(C)C)NC(=O)[C@@H](CCC(=O)O)NC(=O)[C@@H](NC(=O)[C@@H](N)Cc1ccccc1)C(C)(C)O)[C@@H](C)O)C(=O)O` [compound 016, (R)-4-((S)-2-((S)-2-amino-3-phenylpropanamido)-3-hydroxy-3-methylbutanamido)-5-(((S)-1-((S)-2-(((2S,3R)-1-(((1S,2S)-1-carboxy-2-methylbutyl)amino)-3-hydroxy-1-oxobutan-2-yl)carbamoyl)pyrrolidin-1-yl)-4,4-dimethyl-1-oxopentan-2-yl)amino)-5-oxopentanoic acid] (H-F[Val(3-OH)][dE][tBuAla]PTI-OH): in data set [4], the “Aggregation at 1mM” value was determined as 0.18. This compound also had an inhibition at 0.25 µM in data set [1] of 48%. Also, the logD in data set [3] was -0.3.

Take `CC[C@H](C)[C@H](NC(=O)[C@H](NC(=O)[C@@H]1C[C@H](O)CN1C(=O)[C@H](CC(C)(C)C)NC(=O)c1cccc(CNC(=O)[C@H](NC(=O)[C@@H](N)Cc2ccccc2)C(C)(C)O)c1)C(C)(C)O)C(=O)O` [compound 042, ((R)-2-((2S,4S)-1-((S)-2-(3-(((R)-2-((S)-2-amino-3-phenylpropanamido)-3-hydroxy-3-methylbutanamido)methyl)benzamido)-4,4-dimethylpentanoyl)-4-hydroxypyrrolidine-2-carboxamido)-3-hydroxy-3-methylbutanoyl)-L-isoleucine] (H-F[dVal(3-OH)][3Amb][tBuAla][cisHyp][dVal(3-OH)]I-OH): the “Aggregation at 1mM” value in data set [4] is given as “weak signal”. For the same compound, the inhibition at 0.25 µM in data set [1] worked out at 36%. This compound displayed a pH-dependent lipophilicity (logD) in data set [3] of 0.03.
